These results are taken from publication PMC7932080, “In vitro study of Hesperetin and Hesperidin as inhibitors of zika and chikungunya virus proteases” (PLoS ONE, 2021).

For series [1], the target named is T1, ZIKV NS2B/NS3^pro (Zika virus, UniProt A0A024B7W1). On the set-up: method as in PMID 28700665. The settings on record: cited from earlier work.
The target of series [2] is T2, CHIKV nsP2^pro (Chikungunya virus, UniProt Q8JUX6). The series can be described thus: CHIKV nsP2^pro FRET-based inhibition assay. It counts as biochemical. The settings on record: for % activity, mean / % inhibition, mean: mean n=3.
T2 sequence (Q8JUX6 1001-1333): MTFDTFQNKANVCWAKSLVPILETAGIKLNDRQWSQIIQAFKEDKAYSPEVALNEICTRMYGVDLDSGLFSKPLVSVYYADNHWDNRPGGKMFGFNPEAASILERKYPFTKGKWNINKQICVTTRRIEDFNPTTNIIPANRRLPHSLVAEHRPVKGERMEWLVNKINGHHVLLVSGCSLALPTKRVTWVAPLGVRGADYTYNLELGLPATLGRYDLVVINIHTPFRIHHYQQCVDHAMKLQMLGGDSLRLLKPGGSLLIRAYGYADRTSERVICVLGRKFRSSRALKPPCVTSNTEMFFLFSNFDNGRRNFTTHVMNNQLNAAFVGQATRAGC
The test system of another series is trypsin. On the set-up: method as in PMID 23124490. The settings on record: cited from earlier work.
Series [3] relates to CHIKV. The conditions noted are these: cited from earlier work.
For series [4] the following is noted: dose of administration 20 mg/kg, cited from earlier work.
The conditions of series [5]: cited from earlier work.
For series [6] the following is noted: cited from earlier work. This is another data set of the same source.
A further series relates to Vero cells. The series can be described thus: Cell viability through MTT assay.
In series [7] the target is T2, CHIKV nsP2^pro. The series can be described thus: Intrinsic Trp fluorescence titration (KD). The settings on record: Trp fluorescence quenching, ± STD.
The target in series [8] is T2, CHIKV nsP2^pro. Nature of the series: Thermal unfolding by fluorescence spectroscopy. The conditions noted are these: 10 µM protease, 75 µM ligand.
Series [9] deals with CHIKV. The series can be described thus: Plaque reduction antiviral assay in Vero cells. The conditions noted are these: ~50 PFU, two inhibitor concentrations.
For series [10], the target named is T1, ZIKV NS2B/NS3^pro. Nature of the series: ZIKV NS2B/NS3^pro inhibition assay, fluorogenic substrate Pyr-Arg-Thr-Lys-Arg-AMC. The conditions noted are these: compound 20 µM.
In series [11] the target is T2, CHIKV nsP2^pro. On the set-up: method as in PMID 32791353. The conditions noted are these: cited from earlier work.

“And” between values parts separate entries of the source, which are not always exact repeats. Identical values can stand only once. Like-named read-outs stand apart in the source and are kept apart here. Bounds are passed on as bounds.

T1 sequence (A0A024B7W1 1425-1464): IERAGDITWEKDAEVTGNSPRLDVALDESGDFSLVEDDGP
T1 sequence (A0A024B7W1 1503-1680): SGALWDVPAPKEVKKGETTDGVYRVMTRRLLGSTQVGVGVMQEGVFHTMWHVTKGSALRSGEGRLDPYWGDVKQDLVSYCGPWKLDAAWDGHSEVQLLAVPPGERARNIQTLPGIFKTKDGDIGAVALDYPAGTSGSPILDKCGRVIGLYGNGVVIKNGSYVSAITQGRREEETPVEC

`O=c1cc(-c2ccc(O)cc2)oc2cc(O)cc(O)c12` [Apigenin]: at ZIKV NS2B/NS3^pro [1], the IC50 is 56.3 ± 0.9 µM and the Inhibition mode entry is on record as “noncompetitive”.
On to `COc1cc(/C=C/C(=O)CC(=O)/C=C/c2ccc(O)c(OC)c2)ccc1O` [Curcumin], for which the Inhibition mode result at ZIKV NS2B/NS3^pro [1] is on record as “noncompetitive”.
Consider `COc1ccc([C@@H]2CC(=O)c3c(O)cc(O[C@@H]4O[C@H](CO[C@@H]5O[C@@H](C)[C@H](O)[C@@H](O)[C@H]5O)[C@@H](O)[C@H](O)[C@H]4O)cc3O2)cc1O` [HSD, 3’,5,7-trihydroxy-4’-methoxy-flavanone-7-rhamnoglucoside], for which the IC50 is below 10000 nM on CHIKV nsP2^pro [2] (1 µM protease, 3 µM substrate, mean ± SD, n=3); 7100 ± 1100 nM at CHIKV nsP2^pro [2] (IC50, 1 µM protease, 3 µM substrate, mean ± SD, n=3); 8.32 µM (2×) and 5.62 µM (2×) and 7.24 µM (2×) on CHIKV nsP2^pro [2] (IC50, single replicate, HSD, single replicates A, B, C); 8320 nM and 5620 nM and 7240 nM against CHIKV nsP2^pro [2] (Log conc nM (IC50 determination triplicate), HSD, single replicates A, B, C); 6310 nM at CHIKV nsP2^pro [2] (pIC50, from IC50 by online tool); 127 µM in the series on trypsin. In addition, the “LE (ligand efficiency)” value on CHIKV nsP2^pro [2] ((1.4*pIC50)/N) came to 0.17. Also, the “% activity, mean” value on CHIKV nsP2^pro [2] (HSD 0.25 (µM)) is 97.3333%; on CHIKV nsP2^pro [2] (HSD 0.5 (µM)), 90.3333%; on CHIKV nsP2^pro [2] (HSD 1 (µM)), 82%; on CHIKV nsP2^pro [2] (HSD 2.5 (µM)), 72.3333%; on CHIKV nsP2^pro [2] (HSD 5 (µM)), 54.6667%; on CHIKV nsP2^pro [2] (HSD 10 (µM)) it was 39.6667%. Also, the “% activity, mean” value at CHIKV nsP2^pro [2] (HSD 15 (µM)) is 28.6667%; on CHIKV nsP2^pro [2] (HSD 20 (µM)), 21%; at CHIKV nsP2^pro [2] (HSD 25 (µM)), 10.3333%; on CHIKV nsP2^pro [2] (HSD 30 (µM)), 6%; at CHIKV nsP2^pro [2] (HSD 35 (µM)), 3%; on CHIKV nsP2^pro [2] (HSD 40 (µM)), 0.4%. Besides, the “% inhibition, mean” value at CHIKV nsP2^pro [2] (HSD 0.25 (µM)) is recorded as 2.667%; on CHIKV nsP2^pro [2] (HSD 0.5 (µM)), 9.667%; at CHIKV nsP2^pro [2] (HSD 1 (µM)) it was 18%; at CHIKV nsP2^pro [2] (HSD 2.5 (µM)), 27.6667%; on CHIKV nsP2^pro [2] (HSD 5 (µM)) it was 45.3333%; on CHIKV nsP2^pro [2] (HSD 10 (µM)), 60.3333%. The “% inhibition, mean” value is 71.3333% at CHIKV nsP2^pro [2] (HSD 15 (µM)); 79% at CHIKV nsP2^pro [2] (HSD 20 (µM)); 89.6667% on CHIKV nsP2^pro [2] (HSD 25 (µM)); 94% on CHIKV nsP2^pro [2] (HSD 30 (µM)); 99.6% on CHIKV nsP2^pro [2] (HSD 40 (µM)). This compound returned an inhibition at 0.5 µM against CHIKV nsP2^pro [2] (HSD 0.5 (µM), replicates A-C) of 11%. Further, the “% activity” value at CHIKV nsP2^pro [2] (HSD 1 (µM), replicates A-C) is on record as 84%; on CHIKV nsP2^pro [2] (HSD 15 (µM), replicates A-C), 30%. In addition, the “% inhibition” value came out at 16% on CHIKV nsP2^pro [2] (HSD 1 (µM), replicates A-C) and 70% on CHIKV nsP2^pro [2] (HSD 15 (µM), replicates A-C). The same compound had an inhibition at 1 µM at CHIKV nsP2^pro [2] (HSD 1 (µM), replicates A-C) of 22%. Further, testing at 2.5 µM at CHIKV nsP2^pro [2] (HSD 2.5 (µM), replicates A-C) gave an inhibition of 33%. For the same compound, 5 µM produced 49% inhibition against CHIKV nsP2^pro [2] (HSD 5 (µM), replicates A-C). Besides, 10 µM produced 62% inhibition on CHIKV nsP2^pro [2] (HSD 10 (µM), replicates A-C). The same compound showed an inhibition at 15 µM on CHIKV nsP2^pro [2] (HSD 15 (µM), replicates A-C) of 74%. Besides, the inhibition at 20 µM against CHIKV nsP2^pro [2] (HSD 20 (µM), replicates A-C) was 82%; on CHIKV nsP2^pro [2] (read-out: Inhibition of protease activity, preliminary inhibition test, compound 20 µM), above 60%. This compound had an inhibition at 25 µM against CHIKV nsP2^pro [2] (HSD 25 (µM), replicates A-C) of 93%. Besides, on CHIKV nsP2^pro [2] (HSD 30 (µM), replicates A-C), 30 µM produced 97% inhibition. At CHIKV nsP2^pro [2] (HSD 35 (µM), replicates A-C), this compound returned an inhibition at 35 µM of 99%. In addition, at 40 µM the inhibition against CHIKV nsP2^pro [2] (HSD 40 (µM), replicates A-C) was 99.7%. Moreover, the inhibition at 45 µM against CHIKV nsP2^pro [2] (HSD 45 (µM), replicates A-C) was determined as 100%. Moreover, the Inhibition mode result at CHIKV nsP2^pro [2] (Lineweaver-Burk plot) is given as “noncompetitive”. At CHIKV nsP2^pro [2] (read-out: % activity, HSD 0.25 (µM), replicates A-C), the remaining activity at 0.25 µM turned out to be 95%. The remaining activity at 0.5 µM on CHIKV nsP2^pro [2] (read-out: % activity, HSD 0.5 (µM), replicates A-C) was 89%. Also, on CHIKV nsP2^pro [2] (read-out: % activity, HSD 1 (µM), replicates A-C), the remaining activity at 1 µM amounted to 78%. On CHIKV nsP2^pro [2] (read-out: % activity, HSD 2.5 (µM), replicates A-C), the remaining activity at 2.5 µM came to 67%. Moreover, at CHIKV nsP2^pro [2] (read-out: % activity, HSD 5 (µM), replicates A-C), the remaining activity at 5 µM was 51%. Moreover, the remaining activity at 10 µM on CHIKV nsP2^pro [2] (read-out: % activity, HSD 10 (µM), replicates A-C) was 38%. The remaining activity at 15 µM on CHIKV nsP2^pro [2] (read-out: % activity, HSD 15 (µM), replicates A-C) came out at 26%. On CHIKV nsP2^pro [2] (read-out: % activity, HSD 20 (µM), replicates A-C), the remaining activity at 20 µM came out at 18%. For the same compound, the remaining activity at 25 µM on CHIKV nsP2^pro [2] (read-out: % activity, HSD 25 (µM), replicates A-C) worked out at 7%. The remaining activity at 45 µM on CHIKV nsP2^pro [2] (read-out: % activity, HSD 45 (µM), replicates A-C) turned out to be 0%. Moreover, in the series with CHIKV [3], the “Intracellular replication of CHIKV” value was “inhibit”. In [4], the AUC inf. is 4.92 ± 0.38 µM·h. Also, the AUC last in [4] was 4.12 ± 0.26 µM·h. For the same compound, the Cl systemic clearance in series [4] was 112 ± 9.67 mL/min/kg. In [4], the “MRT mean residence time” value was 4.22 ± 0.67 h. Also, the T1/2 elimination half-life in series [4] is listed as 6.74 ± 0.79 h. Further, the “Vd volume of distribution” value in [4] is reported as 64.58 ± 3.70 L/kg. For the same compound, the C0 in series [4] (read-out: Co initial concentration) is 7.47 ± 1.64 µM. Further, in [5], the “Potential maximal tolerated dose” value was “Citrus flavonoids are extremely safe and without side effects also up to high concentrations of 100 mg/kg to 500 mg/kg”. The Bioavailability entry in series [6] is recorded as “limited bioavailability”. For the same compound, the “Cytotoxic effect at the calculated IC50 concentrations” value in the series on Vero cells (2.3 to 300 µM, 2 days) is “no cytotoxic effect”. In addition, the 50% cytotoxic concentration in the series with Vero cells (48 h, concentrations up to 300 µM) is given as above 300 µM. The compound also came in with a dissociation constant Kd at CHIKV nsP2^pro [7] of 40.7 ± 2 µM. Further, on CHIKV nsP2^pro [8], the “Melting temperature (Tm) of protease-ligand complex” value came to 52 °C. Moreover, at CHIKV nsP2^pro [8], the thermal shift (ΔTm) was found to be 5 °C. For the same compound, the “Antiviral activity, plaque reduction” value in the series with CHIKV [9] is recorded as “no antiviral activities”. Further, the “Inhibition of protease activity, preliminary inhibition test” value at ZIKV NS2B/NS3^pro [10] was “not relevant inhibition”.
`COc1cc(-c2oc3cc(O)cc(O)c3c(=O)c2O)ccc1O` [Isorhamnetin]: at ZIKV NS2B/NS3^pro [1], the concentration for half-maximal inhibition (IC50) was 15.5 ± 0.7 µM and the Inhibition mode entry is given as “noncompetitive”.
On to `O=c1cc(-c2ccc(O)c(O)c2)oc2cc(O)cc(O)c12` [Luteolin], for which, on ZIKV NS2B/NS3^pro [1], the Inhibition mode entry was “noncompetitive”.
Take `O=c1c(O)c(-c2cc(O)c(O)c(O)c2)oc2cc(O)cc(O)c12` [Myricetin]: on ZIKV NS2B/NS3^pro [1], the half-maximal inhibitory concentration (IC50) is 1.3 ± 0.1 µM and the Inhibition mode result is “noncompetitive”.
Take `CO[C@@H]1[C@@H](OC(N)=O)[C@@H](O)[C@H](Oc2ccc3c(O)c(NC(=O)c4ccc(O)c(CC=C(C)C)c4)c(=O)oc3c2C)OC1(C)C` [Novobiocin]: the IC50 on CHIKV nsP2^pro [11] is 2 µM.
As to `O=c1c(O)c(-c2ccc(O)c(O)c2)oc2cc(O)cc(O)c12` [Quercetin], on ZIKV NS2B/NS3^pro [1], the IC50 was 2.4 ± 0.2 µM and the Inhibition mode entry is on record as “noncompetitive”.
As for `CCCc1nc2c(C)cc(-c3nc4ccccc4n3C)cc2n1Cc1ccc(-c2ccccc2C(=O)O)cc1` [Telmisartan], the IC50 at CHIKV nsP2^pro [11] is 5 µM.
